PubChem BioAssay AID2060889 (Molecular Pharmacology Branch, DTP, NCI, 2025)

Tested on: LG0567-F671-PDC complex spheroids viability
Assay: Anticancer human tumor LG0567-F671-PDC patient-derived lung adenocarcinoma cell line growth inhibition [RAS]
Settings: for IC50: curve of first compound; for viability, T/C: stronger effect = lower value; active = viability on the fitted dose curve at most 10% of control; inactive = the rest
Source text: RAS pathway inhibitors in Combinations in Complex Spheroids
A high-throughput screen of multi-cell type tumor spheroids was designed to identify active combinations of RAS pathway inhibitors and targeted small molecules. Complex spheroids include a stromal component modeled by human endothelial cells (HUVEC) and fibroblasts modeled by human mesenchymal stem cells (MSCs). The concentration ranges selected for each drug and investigational agent were based upon clinically achievable concentrations if the clinical Cmax of the agent was known.
Compounds. The drugs and investigational agents: abemaciclib (NSC768073), cobimetinib (NSC768068), divarasib (GDC6063, NSC841802), docetaxel (NSC628503), GDC-1971 (RLY-1971, NSC841576), gemcitabine (NSC613327), inavolisib (NSC800729), ipatasertib (NSC767898), KB-0742 (NSC834161), MRTX-1133 (NSC836407), osimertinib (NSC779217), RMC-4630 (NSC839698), RMC-6236 (NSC851965), RMC-6291 (NSC852671), Ro-3306 (NSC812927), sapanisertib (NSC764658), SN-38 (NSC673596), staurosporine (NSC755774), SY5609 (NSC837396), and tovorafenib (DAY101, NSC766906), were obtained from the National Cancer Institute (NCI) Developmental Therapeutics Program Chemical Repository. The FDA-approved anticancer drug set is available from the NCI Developmental Therapeutics Program. […] The stock solutions were prepared in dimethyl sulfoxide (DMSO, Sigma-Aldrich, St. Louis, MO, cat. D2650) at 800-fold the tested concentration and stored at -70 degrees C prior to their use. All drugs and investigational agents were tested over a range starting from a high concentration at or near the clinical Cmax and decreasing in half-log increments. If the clinical Cmax for an agent had not been determined, the highest concentration tested was 10 microM.
Cell Culture. All cells were maintained in an incubator at 37 degrees C and 5% CO2 with 95% humidity. The PDC lines were cultured according to standard operating procedures established by the NCI PDMR. All PDCs were thawed and cultured in Matrigel-coated flasks prepared with a working solution of 1X Ham's F-12 nutrient mix, without supplementation (Invitrogen, Waltham, MA, cat. 11765054), 100 U/mL penicillin-streptomycin (Invitrogen, cat. 15140122), and 2.5% Matrigel (Corning Inc., Corning, NY, cat. 354248) for the first three passages. The 362531-283-R-J2-PDC and 782815-120-R-J1-PDC lines were cultured in 6C/Colon 1B media, which includes advanced DMEM/F-12 (Thermo Fisher Scientific, cat. 12634028), 10 mM HEPES (Thermo Fisher Scientific, cat. 15630080), 1X GlutaMAX supplement (Thermo Fisher Scientific, cat. 35050061), 0.1 mg/mL primocin (InvivoGen, San Diego, CA, cat. ant-pm-2), 10% defined fetal bovine serum, heat inactivated (HyClone Laboratories Inc., Logan, UT, cat. SH30070.03HI), 50% L-WRN conditioned media (ATCC, cat. CRL-3276), 1.25 mM N-Acetyl-L-cysteine (Sigma-Aldrich, cat. A9165), 10 mM nicotinamide (Sigma-Aldrich, cat. N0636), 1X B-27 supplement (Thermo Fisher Scientific, cat. 17504044), 1X N-2 supplement (Thermo Fisher Scientific, cat. 17502048), 50 ng/mL human EGF (Thermo Fisher Scientific, cat. PHG0311), and 10 microM Y-27632 dihydrochloride (Tocris Bioscience, cat. 1254). The K12877-001-R-J1-PDC line was cultured in 6I media, which includes all 6C/Colon 1B media plus 10 ng/mL human FGF-10 (PeproTech, cat. 100-26), 1 ng/mL human FGF-2 (PeproTech, cat. 100-18B), 1 µM prostaglandin E2 (Tocris Bioscience, cat. 2296), […] hydrocortisone (Sigma-Aldrich, cat. H4001), and […] bovine insulin (Sigma-Aldrich, cat. I6634). The K86415-001-R-J1-PDC line was cultured in 6D media, which includes all 6C/Colon 1B media components minus the L-WRN conditioned media. The 485176-168-R4-J1-PDC was cultured in PANC media, which includes all 6C/Colon 1B media plus 100 ng/mL human FGF-10 (PeproTech, cat. 100-26), 500 nM SB-431542 (Selleckchem, cat. S1067), and 10 nM gastrin (Tocris Bioscience, cat. 3006). […]

[1] = second compound 0.0316 µM, first compound 0.0316 µM
[2] = second compound 0.0316 µM, first compound 0.1 µM
[3] = second compound 0.0316 µM, first compound 0.316 µM
[4] = second compound 0.0316 µM, first compound 1 µM
[5] = second compound 0.0316 µM, first compound 3.16 µM
[6] = second compound 0.0316 µM, first compound 10 µM
[7] = second compound 0.1 µM, first compound 0.0316 µM
[8] = second compound 0.1 µM, first compound 0.1 µM
[9] = second compound 0.1 µM, first compound 0.316 µM
[10] = second compound 0.1 µM, first compound 1 µM
[11] = second compound 0.1 µM, first compound 3.16 µM
[12] = second compound 0.1 µM, first compound 10 µM
[13] = second compound 0.316 µM, first compound 0.0316 µM
[14] = second compound 0.316 µM, first compound 0.1 µM
[15] = second compound 0.316 µM, first compound 0.316 µM
[16] = second compound 0.316 µM, first compound 1 µM
[17] = second compound 0.316 µM, first compound 3.16 µM
[18] = second compound 0.316 µM, first compound 10 µM
[19] = second compound 1 µM, first compound 0.0316 µM
[20] = second compound 1 µM, first compound 0.1 µM
[21] = second compound 1 µM, first compound 0.316 µM
[22] = second compound 1 µM, first compound 1 µM
[23] = second compound 1 µM, first compound 3.16 µM
[24] = second compound 1 µM, first compound 10 µM
[25] = second compound 3.16 µM, first compound 0.0316 µM
[26] = second compound 3.16 µM, first compound 0.1 µM
[27] = second compound 3.16 µM, first compound 0.316 µM
[28] = second compound 3.16 µM, first compound 1 µM
[29] = second compound 3.16 µM, first compound 3.16 µM
[30] = second compound 3.16 µM, first compound 10 µM
[31] = second compound 10 µM, first compound 0.0316 µM
[32] = second compound 10 µM, first compound 0.1 µM
[33] = second compound 10 µM, first compound 0.316 µM
[34] = second compound 10 µM, first compound 1 µM
[35] = second compound 10 µM, first compound 3.16 µM
[36] = second compound 10 µM, first compound 10 µM
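Also: spheroids exposed to compound for seven days before readout.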
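For IC50 in this document: luminescence signal used as a proxy for viable cells.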

CC1(O)CCCC1n1c(=O)c(C(F)F)cc2cnc(NC3CCN(S(C)(=O)=O)CC3)nc21 (stereo unspecified) + C#Cc1c(F)ccc2cc(O)cc(-c3ncc4c(N5CC6CCC(C5)N6)nc(OCC56CCCN5CC(F)C6)nc4c3F)c12
6120 nM: IC50 (second compound 0.1 µM)
5850 nM: IC50 (second compound 0.0316 µM)
< 31.6 nM: IC50 (second compound 1 µM) | IC50 (second compound 3.16 µM) | IC50 (second compound 10 µM)
3370 nM: IC50 (second compound 0.316 µM)
inactive: viability, T/C [1] 85.5% | viability, T/C [2] 68.3% | viability, T/C [3] 77.8% | viability, T/C [4] 85.4% | viability, T/C [5] 78.9% | viability, T/C [6] 24.9% | viability, T/C [7] 72.2% | viability, T/C [8] 59.1% | viability, T/C [9] 75.2% | viability, T/C [10] 81.6% | viability, T/C [11] 76.9% | viability, T/C [12] 33.1% | viability, T/C [13] 56.1% | viability, T/C [14] 56.2% | viability, T/C [15] 62.7% | viability, T/C [16] 54.5% | viability, T/C [17] 71.1% | viability, T/C [18] 27.5% | viability, T/C [19] 33.1% | viability, T/C [20] 36.8% | viability, T/C [21] 45.6% | viability, T/C [22] 40% | viability, T/C [23] 40.6% | viability, T/C [24] 18.3% | viability, T/C [25] 17.3% | viability, T/C [26] 23.6% | viability, T/C [27] 25.2% | viability, T/C [28] 29.3% | viability, T/C [29] 23.3% | viability, T/C [30] 14.6% | viability, T/C [31] 14.2% | viability, T/C [32] 15.3% | viability, T/C [33] 17.8% | viability, T/C [34] 18.5% | viability, T/C [35] 14.7% | viability, T/C [36] 8.46%

CCN1CCN(Cc2ccc(Nc3ncc(F)c(-c4cc(F)c5nc(C)n(C(C)C)c5c4)n3)nc2)CC1 + C#Cc1c(F)ccc2cc(O)cc(-c3ncc4c(N5CC6CCC(C5)N6)nc(OCC56CCCN5CC(F)C6)nc4c3F)c12
> 1000 nM: IC50 (second compound 0.0316 µM) | IC50 (second compound 0.1 µM)
13.1 nM: IC50 (second compound 0.316 µM)
< 3.16 nM: IC50 (second compound 1 µM) | IC50 (second compound 3.16 µM) | IC50 (second compound 10 µM)
inactive: viability, T/C (second compound 0.0316 µM, first compound 0.00316 µM) 83.8% | viability, T/C (second compound 0.0316 µM, first compound 0.01 µM) 77.1% | viability, T/C [1] 72.8% | viability, T/C [2] 71.8% | viability, T/C [3] 61.1% | viability, T/C [4] 50.3% | viability, T/C (second compound 0.1 µM, first compound 0.00316 µM) 75.9% | viability, T/C (second compound 0.1 µM, first compound 0.01 µM) 75% | viability, T/C [7] 62.2% | viability, T/C [8] 59.1% | viability, T/C [9] 57.4% | viability, T/C [10] 50.7% | viability, T/C (second compound 0.316 µM, first compound 0.00316 µM) 54.4% | viability, T/C (second compound 0.316 µM, first compound 0.01 µM) 52.6% | viability, T/C [13] 46.8% | viability, T/C [14] 44.4% | viability, T/C [15] 36% | viability, T/C [16] 39.1% | viability, T/C (second compound 1 µM, first compound 0.00316 µM) 37.8% | viability, T/C (second compound 1 µM, first compound 0.01 µM) 34.5% | viability, T/C [19] 30.9% | viability, T/C [20] 27.1% | viability, T/C [21] 28.4% | viability, T/C [22] 27.3% | viability, T/C (second compound 3.16 µM, first compound 0.00316 µM) 20.7% | viability, T/C (second compound 3.16 µM, first compound 0.01 µM) 18.2% | viability, T/C [25] 20% | viability, T/C [26] 17% | viability, T/C [27] 19.7% | viability, T/C [28] 18.2% | viability, T/C (second compound 10 µM, first compound 0.00316 µM) 11.4% | viability, T/C (second compound 10 µM, first compound 0.01 µM) 10.8% | viability, T/C [31] 13.1% | viability, T/C [32] 10.7% | viability, T/C [33] 13.4% | viability, T/C [34] 16.4%

C[C@@H](NC(=O)c1ncnc(N)c1Cl)c1ncc(C(=O)Nc2cc(C(F)(F)F)c(Cl)cn2)s1 + C#Cc1c(F)ccc2cc(O)cc(-c3ncc4c(N5CC6CCC(C5)N6)nc(OCC56CCCN5CC(F)C6)nc4c3F)c12
inactive: viability, T/C [1] 99.1% | viability, T/C [2] 100% | viability, T/C [3] 125% | viability, T/C [4] 103% | viability, T/C [5] 94.9% | viability, T/C [6] 56.1% | viability, T/C [7] 81.2% | viability, T/C [8] 105% | viability, T/C [9] 88.8% | viability, T/C [10] 92.8% | viability, T/C [11] 82% | viability, T/C [12] 57% | viability, T/C [13] 73.5% | viability, T/C [14] 80.9% | viability, T/C [15] 74.2% | viability, T/C [16] 67.7% | viability, T/C [17] 67% | viability, T/C [18] 44.7% | viability, T/C [19] 40.5% | viability, T/C [20] 43.7% | viability, T/C [21] 52.5% | viability, T/C [22] 42.5% | viability, T/C [23] 51.8% | viability, T/C [24] 34% | viability, T/C [25] 26.1% | viability, T/C [26] 28.6% | viability, T/C [27] 29.2% | viability, T/C [28] 25.6% | viability, T/C [29] 26.6% | viability, T/C [30] 23.2% | viability, T/C [31] 14.9% | viability, T/C [32] 17.1% | viability, T/C [33] 16.5% | viability, T/C [34] 19.4% | viability, T/C [35] 21.2% | viability, T/C [36] 17.9%
7540 nM: IC50 (second compound 0.316 µM)
< 31.6 nM: IC50 (second compound 1 µM) | IC50 (second compound 3.16 µM) | IC50 (second compound 10 µM)
> 10000 nM: IC50 (second compound 0.0316 µM) | IC50 (second compound 0.1 µM)
